One molecule from US20150259371A1, “METHODS AND COMPOUNDS FOR INHIBITING GLYCOSYLTRANSFERASES” (SIMON FRASER UNIVERSITY, priority 2010, published 2015) can be followed below.

Entries after “also recorded” stand apart in the source; their conditions may differ.

In general, EC50 refers to the midpoint of the concentration-response curve.

In series [1] the test system is OGT. Description: Western blot of OGT levels in treated COS-7 cells. Conditions: 50 μM, 24 h. The format is cell-based, African green monkey. As to the method:
(§1) Westernlectin blots: Samples were run on 10% SDS polyacrylamide gels and transferred onto nitrocellulose membranes (Biorad). Membranes were blocked for 1 h in PBS containing 0.1% Tween-20 (PBS-T) containing 1% (unless otherwise stated) bovine serum albumin (BSA), and probed with the appropriate primary antibody or lectin in 1% BSA in PBS-T overnight at 4° C. Blots were washed for 1 hr with PBS-T, and blocked for a further 30 min with 1% BSA in PBS-T at room temperature. They were then probed with the appropriate horseradish peroxidise (HRP)-conjugated secondary antibodyprobe in 1% BSA in PBS-T at room temperature for 1 h, followed by washing in PBS-T for 1 h. Blots were developed with SuperSignal West Pico Chemiluminescent Substrate (Pierce) and exposed to CL-XPosure film (Pierce). Densitometry was performed using ImageQuant 5.2 (Molecular Dynamics), and fits to the data were made using GRAFIT^41.
Antibodieslectins: O-GlcNAc levels were assessed primarily using CTD110.6 (Covance), but RL2 (Abcam) and HGAC85 (Abcam) were also tested. Actin was probed using JLA20 (Developmental Studies Hybridoma Bank). OGA levels were assessed using a polyclonal anti-OGA antibody which was a kind gift from Dr. Gerald Hart and OGT levels using H-300 (Santa Cruz Biotechnology). nup62 was probed using mAb 414 (Covance). […]
A general note: In western blotting, separated proteins are transferred to a membrane and probed.

The subject of series [2] is O-GlcNAc levels in COS-7 cells. Description: Western blot of O-GlcNAc levels (CTD110.6) in treated COS-7 cells. The series is classed as cell-based, African green monkey. On the procedure: Cell culture: Cells were grown in an incubator at 37° C. and 5% CO2 atmosphere. Media and serum were purchased from Invitrogen. COS-7 cells were cultured in Dulbecco's modified Eagle's medium (DMEM) with 5% fetal bovine serum (FBS), and were typically 80-100% confluent prior to experimentation. HepG2, SK-N-SH, and EMEG32^−/− cells were cultured in Dulbecco's modified Eagle's medium (DMEM) with 5% fetal bovine serum (FBS), CHO cells in DMEMF-12 with 5% FBS and PC12 cells in DMEM with 5% FBS and 5% horse serum. Prior to experimentation, PC12 cells were plated at a density of 3-4×10^5 cells10 cm plate, which had been pre-treated with 5 μgcm^2 rat tail collagen (BD Biosciences). Cells were differentiated in DMEM containing 1% horse serum, in the presence of 2.5S mouse nerve growth factor (Chemicon) at a final concentration of 25 ng mL^−1, for 4-5 days prior to treatment. Other cell lines were 80-100% confluent prior to treatment. Following treatment with (Ac-)5SGlcNAc, using various conditions, cells were washed gently with PBS, lysed in SDS loading buffer and boiled for 10 minutes. Mouse hybridoma cells (obtained from the Developmental Studies Hybridoma Bank; antibody E7 for (:1-tubulin) were cultured in RPMI40 with 10% FBS. Prior to treatment with Ac-5SGlcNAc, hybridoma cells were cultured for 2 days in RPMI40 with 5% FBS, and during treatment in RPMI40 with no serum. Cells were collected, centrifuged (800 x g, 5 min) and the supernatant removed. Cells were washed with PBS, centrifuged, the pellet resuspended in SDS loading buffer and boiled. The supernatant after centrifugation, which contained the IgG antibody produced by the cells, was used for immunoprecipitation (see below for details).
as §1
Antibodieslectins: O-GlcNAc levels were assessed primarily using CTD110.6 (Covance), but RL2 (Abcam) and HGAC85 (Abcam) were also tested. Actin was probed using JLA20 (Developmental Studies Hybridoma Bank). OGA levels were assessed using a polyclonal anti-OGA antibody which was a kind gift from Dr. Gerald Hart and OGT levels using H-300 (Santa Cruz Biotechnology). nup62 was probed using mAb 414 (Covance). Secondary antibodies employed (HRP-conjugated goat anti-mouse IgM, goat anti-mouse IgG, goat anti-chicken IgY and goat anti-rabbit IgG) were obtained from Santa Cruz Biotechnology. Biotinylated-ConA, PHA-L, SNA and MAA were purchased from EY Laboratories, and biotinylated-GNA from Vector Laboratories. HRP-conjugated streptavidin (Pierce) was used as a probe for the biotinylated lectins.
Analogues (9, 10, 17-41) were tested in COS-7 cells, dosed at a final concentration of 50 μM in DMSO for 24 h. Following treatment, cells were washed with PBS, harvested into SDS-PAGE loading buffer and analyzed by western blot using standard procedures; blots were probed with the anti-O-GlcNAc antibody (CTD 110.6).

For series [3], the system named is EMEG32 heterozygous mouse embryonic fibroblast cells. Description: Cell proliferation growth curves over 5 days and western blot, EMEG32 heterozygous fibroblasts. Conditions: 50 μM, 5 days. The series is classed as cell-based. On the procedure: (A) Cell proliferation curves over the course of 5 days for CHO cells following no (circles), 50 μM Ac-GlcNAc (squares) or 50 μM Ac-5SGlcNAc (triangles) treatment. The error bars indicate the deviation from the mean for triplicate measurements. […] Upper panel, probed with anti-O-GlcNAc antibody (CTD110.6); lower panel, probed with anti-actin antibody. (B) Cell proliferation curves over the course of 5 days for EMEG heterozygous mouse embryonic fibroblast cells following no (circles), 50 μM Ac-GlcNAc (squares) or 50 μM Ac-5SGlcNAc (triangles) treatment. The error bars indicate the deviation from the mean for triplicate measurements. […] Upper panel, probed with anti-O-GlcNAc antibody (CTD110.6); lower panel, probed with anti-actin antibody. (C) Western blots of CHO cell lysates following no (C) or Ac-5SGlcNAc administration at 50 μM for 4 days. Probed with (from top to bottom) anti-Spl antibody, anti O-GlcNAc (CTD110.6) antibody and anti-actin antibody. Full blot of the anti-Sp 1 is shown in panel (d). (D) Western blots of CHO cell lysates following no (C) or Ac-5SGlcNAc administration at 50 μM for 4 days. The full blot probed with anti-Spl antibody is shown. (E) Western blots of COS-7 cell lysates following no (C) or 50 μM Ac-5SGlcNAc treatment for 24 h. Following treatment, the media was replaced with no inhibitor, and cells were harvested at the time points indicated (between 0 and 24 h). Upper panel, probed with anti-O-GlcNAc antibody (CTD110.6); lower panel, probed with anti-actin antibody.
Cellular responses to Ac-5SGlcNAc (9) treatment and consequent decreases in O-GlcNAc levels were evaluated. […] We quantitatively evaluated cell proliferation and established growth curves over the course of 5 days in both CHO and EMEG32 heterozygous mouse embryonic fibroblast cells treated with 50 μM Ac-5SGlcNAc (9), 50 μM Ac-GlcNAc (G), or vehicle (FIGS. 5A-B).

For the molecule `CC(=O)NC1C(OC(C)=O)SC(COC(C)=O)C(OC(C)=O)C1OC(C)=O` [Compound 9, N-Acetyl-1,3,4,6-tetra-O-acetyl-α-D-5-thio-glucosamine], in series [1], the OGT levels result is “increase in OGT levels”. The “O-GlcNAc levels on dosing for 5 days” value in series [2] (50 μM, 5 days) is “O-GlcNAc levels dropped in the first day and remained low”. Moreover, the “O-GlcNAc levels, time course” value in series [2] (50 μM, hours, listed as Ac-5SGlcNAc) is “almost no O-GlcNAc being detectable after 24 hours; also recorded: O-GlcNAc levels diminish to a low level by 24 h”. In series [2] (24 hours), the “effect on O-GlcNAc levels, dose response” value is listed as “decreased O-GlcNAc levels in a dose-dependent fashion”. In addition, in series [2] (Chlorocebus sabaeus, 24 h, densitometry of western blot, read-out: EC50 for reduction of O-GlcNAc levels), the EC50 worked out at 5 µM. In addition, the “time for O-GlcNAc to return to basal levels after change to media without compound” value in series [2] (after 50 μM for 24 h) was not above 24 h. Besides, the growth rate entry in series [3] (EMEG32 heterozygotes) was “indistinguishable but were both lower than vehicle treated cells”. Moreover, the “O-GlcNAc levels at last time point of growth curve” value in series [3] (EMEG heterozygous cells) is on record as “O-GlcNAc levels are still significantly decreased in cells treated with Ac-5SGlcNAc”.
